We go through one molecule from doi:10.1101/2021.09.16.460603v1 (biorxiv, 2021).

This experiment addresses T1, Bovine liver catalase (CAT) (Bos taurus, UniProt P00432).
T1 sequence (P00432 2-527): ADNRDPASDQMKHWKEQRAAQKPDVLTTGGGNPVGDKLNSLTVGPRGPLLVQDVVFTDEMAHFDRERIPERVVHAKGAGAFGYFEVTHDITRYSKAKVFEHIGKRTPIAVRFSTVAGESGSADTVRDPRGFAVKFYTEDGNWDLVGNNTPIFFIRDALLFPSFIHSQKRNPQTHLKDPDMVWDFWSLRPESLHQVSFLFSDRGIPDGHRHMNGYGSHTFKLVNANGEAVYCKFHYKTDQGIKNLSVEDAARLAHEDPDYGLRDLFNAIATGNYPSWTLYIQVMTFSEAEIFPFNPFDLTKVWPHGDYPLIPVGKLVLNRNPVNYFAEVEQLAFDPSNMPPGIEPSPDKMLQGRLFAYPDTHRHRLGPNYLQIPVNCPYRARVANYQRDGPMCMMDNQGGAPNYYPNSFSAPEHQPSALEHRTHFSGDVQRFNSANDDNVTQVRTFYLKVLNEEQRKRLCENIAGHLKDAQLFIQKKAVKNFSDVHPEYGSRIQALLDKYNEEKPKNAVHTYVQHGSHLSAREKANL
Briefly: H2O2 disappearance at […] nm after […] min preincubation with D-Pen. In kind it is biochemical.

For the molecule `CC(C)(S)[C@@H](N)C(=O)O` [D-penicillamine], 191 ± 26 µM corresponded to half-maximal inhibition (IC50).
